Source: patent US11993599B2, “Therapeutic compounds” (Genentech, Inc., priority 2021, dated 2024)

Columns and labels:
[1] = target: T1, BRG1 (Homo sapiens, UniProt P51532); experiment: Immunofluorescence assay for BRG1 degradation in SW1573 cells; type: cell-based; details: 20 hours incubation; for DC50: immunofluorescence mean nuclear signal, read-out: BRG1 IF Degradation IC50; for Dmax: SW1573, 20 h, read-out: BRG1 IF Degradation Sinf (%)
T1 construct: either BRM primary antibody (Cell signaling Cat #11966) or BRG primary antibody (Abcam, ab 110641); endogenous in cells; host or cells: SW1573
T1 sequence (P51532 whole entry): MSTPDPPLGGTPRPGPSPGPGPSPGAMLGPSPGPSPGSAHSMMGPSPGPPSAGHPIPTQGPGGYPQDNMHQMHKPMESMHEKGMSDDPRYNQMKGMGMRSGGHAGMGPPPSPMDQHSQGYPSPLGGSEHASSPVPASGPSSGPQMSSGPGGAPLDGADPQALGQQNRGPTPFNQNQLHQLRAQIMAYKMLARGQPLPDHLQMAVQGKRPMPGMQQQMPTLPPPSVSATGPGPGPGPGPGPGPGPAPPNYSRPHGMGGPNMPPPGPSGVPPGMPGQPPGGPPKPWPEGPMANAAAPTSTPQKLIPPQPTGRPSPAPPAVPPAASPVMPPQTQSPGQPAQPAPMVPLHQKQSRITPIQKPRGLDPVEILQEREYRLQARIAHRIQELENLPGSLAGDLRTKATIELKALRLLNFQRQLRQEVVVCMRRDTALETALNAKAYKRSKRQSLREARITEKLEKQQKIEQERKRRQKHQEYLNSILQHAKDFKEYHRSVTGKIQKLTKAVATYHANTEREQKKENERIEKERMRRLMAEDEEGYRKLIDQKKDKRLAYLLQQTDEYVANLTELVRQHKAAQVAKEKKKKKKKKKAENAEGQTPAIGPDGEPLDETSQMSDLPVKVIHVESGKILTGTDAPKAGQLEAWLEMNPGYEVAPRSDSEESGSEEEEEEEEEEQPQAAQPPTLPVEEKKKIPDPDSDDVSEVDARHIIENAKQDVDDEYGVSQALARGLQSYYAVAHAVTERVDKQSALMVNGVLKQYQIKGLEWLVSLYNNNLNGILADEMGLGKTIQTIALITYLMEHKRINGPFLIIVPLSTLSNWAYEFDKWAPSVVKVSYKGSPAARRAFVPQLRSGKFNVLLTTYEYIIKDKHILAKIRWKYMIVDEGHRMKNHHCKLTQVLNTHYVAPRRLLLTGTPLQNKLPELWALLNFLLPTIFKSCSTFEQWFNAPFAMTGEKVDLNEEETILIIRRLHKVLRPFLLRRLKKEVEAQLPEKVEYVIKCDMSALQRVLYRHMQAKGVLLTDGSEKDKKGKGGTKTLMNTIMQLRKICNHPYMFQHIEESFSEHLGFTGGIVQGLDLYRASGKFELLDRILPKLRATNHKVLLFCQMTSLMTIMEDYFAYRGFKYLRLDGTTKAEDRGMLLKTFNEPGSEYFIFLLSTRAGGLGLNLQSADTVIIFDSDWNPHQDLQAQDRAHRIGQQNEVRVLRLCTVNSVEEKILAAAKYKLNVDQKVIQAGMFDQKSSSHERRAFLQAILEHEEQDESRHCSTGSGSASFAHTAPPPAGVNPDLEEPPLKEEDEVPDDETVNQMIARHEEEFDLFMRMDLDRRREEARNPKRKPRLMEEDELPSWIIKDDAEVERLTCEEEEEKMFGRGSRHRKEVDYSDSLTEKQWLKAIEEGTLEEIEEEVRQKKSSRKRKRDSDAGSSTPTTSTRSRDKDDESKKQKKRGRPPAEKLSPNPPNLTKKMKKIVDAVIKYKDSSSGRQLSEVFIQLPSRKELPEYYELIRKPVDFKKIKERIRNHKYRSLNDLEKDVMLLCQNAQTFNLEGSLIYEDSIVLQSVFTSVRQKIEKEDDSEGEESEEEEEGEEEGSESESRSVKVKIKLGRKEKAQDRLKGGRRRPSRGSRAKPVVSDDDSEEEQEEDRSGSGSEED
How it was run: (§1)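 Cells seeded one day before dosing, exposed to compounds for 20 hours, then fixed, permeabilized, blocked and stained overnight at 4 °C with anti-BRM or anti-BRG1 antibody. Nuclear fluorescence intensity per cell, normalized to a degrader control, gave concentration-response curves fitted with a floating maximum.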

[2] = target: BRM (Homo sapiens, UniProt P51531); experiment: Immunofluorescence assay for BRM degradation in SW1573 cells; type: cell-based; design: treated overnight at 4° C. with either BRM primary antibody (Cell signaling Cat #11966) or BRG primary antibody; endogenous in cells; host or cells: SW1573; details: 20 hours incubation; for DC50: immunofluorescence mean nuclear signal, read-out: BRM IF Degradation IC50; for BRM IF Degradation Sinf (%): normalized to a known degrader control
BRM, sequence (P51531 whole entry): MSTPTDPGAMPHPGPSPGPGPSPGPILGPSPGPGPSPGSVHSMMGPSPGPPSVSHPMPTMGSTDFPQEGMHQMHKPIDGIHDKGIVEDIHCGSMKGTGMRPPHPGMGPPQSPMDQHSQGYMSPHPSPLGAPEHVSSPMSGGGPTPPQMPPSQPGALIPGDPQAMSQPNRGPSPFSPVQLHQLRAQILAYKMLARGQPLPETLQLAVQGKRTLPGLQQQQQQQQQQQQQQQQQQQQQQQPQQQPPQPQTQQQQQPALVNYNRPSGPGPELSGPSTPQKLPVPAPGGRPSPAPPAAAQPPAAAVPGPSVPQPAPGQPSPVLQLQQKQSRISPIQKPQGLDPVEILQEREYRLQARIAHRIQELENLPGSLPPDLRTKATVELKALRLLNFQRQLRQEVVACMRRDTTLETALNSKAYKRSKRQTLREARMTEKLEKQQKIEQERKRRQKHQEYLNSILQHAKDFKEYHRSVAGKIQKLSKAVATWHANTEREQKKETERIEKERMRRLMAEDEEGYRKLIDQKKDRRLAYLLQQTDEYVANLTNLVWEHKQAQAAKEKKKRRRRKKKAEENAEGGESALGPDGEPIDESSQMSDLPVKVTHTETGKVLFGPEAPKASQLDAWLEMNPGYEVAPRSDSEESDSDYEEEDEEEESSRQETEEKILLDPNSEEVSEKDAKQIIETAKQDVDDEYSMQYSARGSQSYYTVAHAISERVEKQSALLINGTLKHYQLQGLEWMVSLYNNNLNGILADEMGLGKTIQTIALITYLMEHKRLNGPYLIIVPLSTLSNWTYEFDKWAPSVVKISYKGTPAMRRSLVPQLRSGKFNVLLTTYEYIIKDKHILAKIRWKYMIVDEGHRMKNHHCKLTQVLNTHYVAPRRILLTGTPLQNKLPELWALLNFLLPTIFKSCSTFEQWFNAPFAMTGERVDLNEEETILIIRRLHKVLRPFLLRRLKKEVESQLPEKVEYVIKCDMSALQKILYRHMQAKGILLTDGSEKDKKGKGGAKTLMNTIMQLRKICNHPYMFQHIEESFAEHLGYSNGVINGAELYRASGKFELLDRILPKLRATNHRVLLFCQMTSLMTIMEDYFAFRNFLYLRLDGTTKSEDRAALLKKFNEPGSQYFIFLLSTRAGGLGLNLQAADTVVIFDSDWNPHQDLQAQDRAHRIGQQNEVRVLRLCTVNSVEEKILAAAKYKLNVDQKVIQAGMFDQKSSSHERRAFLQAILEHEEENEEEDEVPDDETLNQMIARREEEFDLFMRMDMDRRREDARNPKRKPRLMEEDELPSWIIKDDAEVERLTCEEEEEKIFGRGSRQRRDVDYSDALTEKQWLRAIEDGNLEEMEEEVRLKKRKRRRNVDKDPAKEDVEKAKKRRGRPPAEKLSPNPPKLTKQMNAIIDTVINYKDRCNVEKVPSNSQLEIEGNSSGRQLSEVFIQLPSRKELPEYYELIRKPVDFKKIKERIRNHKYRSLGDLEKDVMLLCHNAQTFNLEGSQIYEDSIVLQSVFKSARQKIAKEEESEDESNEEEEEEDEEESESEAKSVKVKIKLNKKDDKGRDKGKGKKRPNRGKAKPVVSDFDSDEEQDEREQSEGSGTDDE
How it was run: as §1

[3] = normalized to a known degrader control

For `Nc1nnc(-c2ccccc2O)cc1N1CC2CCC(C1)N2c1ccnc(C#CCN2CCCC3(CC3)C2)c1` [Compound 99, 2-[6-amino-5-[8-[2-[3-(5-azaspiro[2.5]octan-5-yl)prop-1-ynyl]-4-pyridyl]-3,8-diazabicyclo[3.2.1]octan-3-yl]pyridazin-3-yl]phenol], the DC50 [1] was < 10 nM, the Dmax [1, 3] was 30 to 70% and the DC50 [2] was < 10 nM. The “BRM IF Degradation Sinf (%)” value [2] was “E (E indicates −30%-−70%)”.

In the case of `CN1CCCN(CC#Cc2cc(N3C4CCC3CN(c3cc(-c5ccccc5O)nnc3N)C4)ccn2)CC1` [Compound 47, 2-[6-amino-5-[8-[2-[3-(4-methyl-1,4-diazepan-1-yl)prop-1-ynyl]-4-pyridyl]-3,8-diazabicyclo[3.2.1]octan-3-yl]pyridazin-3-yl]phenol], the DC50 [1] is reported as > 100 nM, the Dmax [1, 3] is reported as 0 to 30% and the DC50 [2] is reported as > 100 nM. For the same molecule, the “BRM IF Degradation Sinf (%)” value [2] was “E (E indicates −30%-−70%)”.

In the case of `Nc1nnc(-c2ccccc2O)cc1N1CC2CCC(C1)N2c1ccnc(C#CCN2C3COCC2CC(F)C3)c1` (stereo not shown) [Compound 144, 2-[6-amino-5-[8-[2-[3-(7-fluoro-3-oxa-9-azabicyclo[3.3.1]nonan-9-yl)prop-1-ynyl]-4-pyridyl]-3,8-diazabicyclo[3.2.1]octan-3-yl]pyridazin-3-yl]phenol], the DC50 [1] is reported as 10 to 100 nM, the Dmax [1, 3] is reported as 0 to 30% and the DC50 [2] is reported as > 100 nM. For the same molecule, the “BRM IF Degradation Sinf (%)” value [2] was “E (E indicates −30%-−70%)”.

In the case of `Nc1nnc(-c2ccccc2O)cc1N1CC2CCC(C1)N2c1ccnc(C#CCN2CCC23CCCOC3)c1` (stereo not shown) [Compound 100, 2-[6-amino-5-[8-[2-[3-(8-oxa-1-azaspiro[3.5]nonan-1-yl)prop-1-ynyl]-4-pyridyl]-3,8-diazabicyclo[3.2.1]octan-3-yl]pyridazin-3-yl]phenol], the DC50 [1] is reported as < 10 nM, the Dmax [1, 3] is reported as 30 to 70% and the DC50 [2] is reported as < 10 nM. For the same molecule, the “BRM IF Degradation Sinf (%)” value [2] was “E (E indicates −30%-−70%)”.

Work on `Nc1nnc(-c2ccccc2O)cc1N1CC2CCC(C1)N2c1ccnc(C#CCN2CCC(CO)CC2)c1` [Compound 45, 2-(6-amino-5-(8-(2-(3-(4-(hydroxymethyl)piperidin-1-yl)prop-1-yn-1-yl)pyridin-4-yl)-3,8-diazabicyclo[3.2.1]octan-3-yl)pyridazin-3-yl)phenol] yielded a DC50 [1] of 10 to 100 nM, a Dmax [1, 3] of 30 to 70% and a DC50 [2] of 10 to 100 nM. For the same molecule, the “BRM IF Degradation Sinf (%)” value [2] was “E (E indicates −30%-−70%)”.

With `CC1(CO)CN(CC#Cc2cc(N3C4CCC3CN(c3cc(-c5ccccc5O)nnc3N)C4)ccn2)C1` [Compound 170, 2-[6-amino-5-[8-[2-[3-[3-(hydroxymethyl)-3-methyl-azetidin-1-yl]prop-1-ynyl]-4-pyridyl]-3,8-diazabicyclo[3.2.1]octan-3-yl]pyridazin-3-yl]phenol] the DC50 [1] was > 100 nM, the Dmax [1, 3] was 30 to 70% and the DC50 [2] was 10 to 100 nM. For the same molecule, the “BRM IF Degradation Sinf (%)” value [2] was “E (E indicates −30%-−70%)”.

With `CC1CCN(CC#Cc2cc(N3C4CCC3CN(c3cc(-c5ccccc5O)nnc3N)C4)ccn2)CCC1(C)O` (stereo not shown) [Compound 239, 1-[3-[4-[3-[3-amino-6-(2-hydroxyphenyl)pyridazin-4-yl]-3,8-diazabicyclo[3.2.1]octan-8-yl]-2-pyridyl]prop-2-ynyl]-4,5-dimethyl-azepan-4-ol] the DC50 [1] was < 10 nM, the Dmax [1, 3] was 30 to 70% and the DC50 [2] was < 10 nM. For the same molecule, the “BRM IF Degradation Sinf (%)” value [2] was “E (E indicates −30%-−70%)”.

Molecule `Nc1nnc(-c2ccccc2O)cc1N1CC2CCC(C1)N2c1ccnc(C#CCN2CCn3ccnc3C2)c1` [Compound 53, 2-[6-amino-5-[8-[2-[3-(6,8-dihydro-5H-imidazo[1,2-a]pyrazin-7-yl)prop-1-ynyl]-4-pyridyl]-3,8-diazabicyclo[3.2.1]octan-3-yl]pyridazin-3-yl]phenol] has a DC50 [1] of 10 to 100 nM, a Dmax [1, 3] of 0 to 30% and a DC50 [2] of 10 to 100 nM. The “BRM IF Degradation Sinf (%)” value [2] was “E (E indicates −30%-−70%)”.

In the case of `Nc1nnc(-c2ccccc2O)cc1N1CC2CCC(C1)N2c1ccnc(C#CCN2CCC3COCC3C2)c1` (stereo not shown) [Compound 88, 2-[5-[8-[2-[3-(3,3a,4,6,7,7a-hexahydro-1H-furo[3,4-c]pyridin-5-yl)prop-1-ynyl]-4-pyridyl]-3,8-diazabicyclo[3.2.1]octan-3-yl]-6-amino-pyridazin-3-yl]phenol], the DC50 [1] is reported as < 10 nM, the Dmax [1, 3] is reported as 0 to 30% and the DC50 [2] is reported as < 10 nM. For the same molecule, the “BRM IF Degradation Sinf (%)” value [2] was “E (E indicates −30%-−70%)”.

With `Nc1nnc(-c2ccccc2O)cc1N1CC2CCC(C1)N2c1ccnc(C#CCN2CCC(O)CC2)c1` [Compound 71, 1-[3-[4-[3-[3-amino-6-(2-hydroxyphenyl)pyridazin-4-yl]-3,8-diazabicyclo[3.2.1]octan-8-yl]-2-pyridyl]prop-2-ynyl]piperidin-4-ol] the DC50 [1] was < 10 nM, the Dmax [1, 3] was 30 to 70% and the DC50 [2] was 10 to 100 nM. The “BRM IF Degradation Sinf (%)” value [2] was “E (E indicates −30%-−70%)”.

For `Nc1nnc(-c2ccccc2O)cc1N1CC2CCC(C1)N2c1ccnc(C#CCN2CCCC(F)(F)CC2)c1` [Compound 189, 2-[6-amino-5-[8-[2-[3-(4,4-difluoroazepan-1-yl)prop-1-ynyl]-4-pyridyl]-3,8-diazabicyclo[3.2.1]octan-3-yl]pyridazin-3-yl]phenol], the DC50 [1] was < 10 nM, the Dmax [1, 3] was 30 to 70% and the DC50 [2] was < 10 nM. For the same molecule, the “BRM IF Degradation Sinf (%)” value [2] was “F (F indicates −71%-−120%)”.

With `Nc1nnc(-c2ccccc2O)cc1N1CC2CCC(C1)N2c1ccnc(C#CCN2CC(CC(F)F)C2)c1` [Compound 158, 2-[6-amino-5-[8-[2-[3-[3-(2,2-difluoroethyl)azetidin-1-yl]prop-1-ynyl]-4-pyridyl]-3,8-diazabicyclo[3.2.1]octan-3-yl]pyridazin-3-yl]phenol] the DC50 [1] was < 10 nM, the Dmax [1, 3] was 30 to 70% and the DC50 [2] was < 10 nM. The “BRM IF Degradation Sinf (%)” value [2] was “F (F indicates −71%-−120%)”.

In the case of `Nc1nnc(-c2ccccc2O)cc1N1CC2CCC(C1)N2c1ccnc(C#CCN2CC3CNCC3C2)c1` (stereo not shown) [Compound 54, 2-[5-[8-[2-[3-(2,3,3a,4,6,6a-hexahydro-1H-pyrrolo[3,4-c]pyrrol-5-yl)prop-1-ynyl]-4-pyridyl]-3,8-diazabicyclo[3.2.1]octan-3-yl]-6-amino-pyridazin-3-yl]phenol], the DC50 [1] is reported as > 100 nM, the Dmax [1, 3] is reported as 30 to 70% and the DC50 [2] is reported as > 100 nM. For the same molecule, the “BRM IF Degradation Sinf (%)” value [2] was “F (F indicates −71%-−120%)”.

`Nc1nnc(-c2ccccc2O)cc1N1CC2CCC(C1)N2c1ccnc(C#CCN2CCC3CCC2CC3)c1` [Compound 218, 2-[6-amino-5-[8-[2-[3-(2-azabicyclo[3.2.2]nonan-2-yl)prop-1-ynyl]-4-pyridyl]-3,8-diazabicyclo[3.2.1]octan-3-yl]pyridazin-3-yl]henol] was tested, and the DC50 [1] was < 10 nM, the Dmax [1, 3] was 30 to 70% and the DC50 [2] was < 10 nM. For the same molecule, the “BRM IF Degradation Sinf (%)” value [2] was “F (F indicates −71%-−120%)”.

With `Nc1nnc(-c2ccccc2O)cc1N1CC2CCC(C1)N2c1ccnc(C#CCN2CC(c3ccncn3)C2)c1` [Compound 231, 2-[6-amino-5-[8-[2-[3-(3-pyrimidin-4-ylazetidin-1-yl)prop-1-ynyl]-4-pyridyl]-3,8-diazabicyclo[3.2.1]octan-3-yl]pyridazin-3-yl]phenol] the DC50 [1] was < 10 nM, the Dmax [1, 3] was 30 to 70% and the DC50 [2] was < 10 nM. The “BRM IF Degradation Sinf (%)” value [2] was “E (E indicates −30%-−70%)”.

`Nc1nnc(-c2ccccc2O)cc1N1CC2CCC(C1)N2c1ccnc(C#CCN2CCOC3CC32)c1` (stereo not shown) [Compound 74, 2-[6-amino-5-[8-[2-[3-(2-oxa-5-azabicyclo[4.1.0]heptan-5-yl)prop-1-ynyl]-4-pyridyl]-3,8-diazabicyclo[3.2.1]octan-3-yl]pyridazin-3-yl]phenol] was tested, and the DC50 [1] was > 100 nM, the DC50 [2] was 10 to 100 nM and the “BRM IF Degradation Sinf (%)” value [2] was “E (E indicates −30%-−70%)”.

`CC[C@H]1COCCN1CC#Cc1cc(N2C3CCC2CN(c2cc(-c4ccccc4O)nnc2N)C3)ccn1` [Compound 64, 2-[6-amino-5-[8-[2-[3-[(3S)-3-ethylmorpholin-4-yl]prop-1-ynyl]-4-pyridyl]-3,8-diazabicyclo[3.2.1]octan-3-yl]pyridazin-3-yl]phenol] showed a DC50 [1] of 10 to 100 nM, a Dmax [1, 3] of 0 to 30% and a DC50 [2] of 10 to 100 nM. The “BRM IF Degradation Sinf (%)” value [2] was “E (E indicates −30%-−70%)”.

With `Nc1nnc(-c2ccccc2O)cc1N1CC2CCC(C1)N2c1ccnc(C#CCN2CC(F)C2)c1` [Compound 228, 2-[6-amino-5-[8-[2-[3-(3-fluoroazetidin-1-yl)prop-1-ynyl]-4-pyridyl]-3,8-diazabicyclo[3.2.1]octan-3-yl]pyridazin-3-yl]phenol] the DC50 [1] was < 10 nM, the Dmax [1, 3] was 0 to 30% and the DC50 [2] was < 10 nM. The “BRM IF Degradation Sinf (%)” value [2] was “E (E indicates −30%-−70%)”.

In the case of `Nc1nnc(-c2ccccc2O)cc1N1CC2CCC(C1)N2c1ccnc(C#CCN2CCC[C@@H]2CO)c1` [Compound 65, 2-[6-amino-5-[8-[2-[3-[(2R)-2-(hydroxymethyl)pyrrolidin-1-yl]prop-1-ynyl]-4-pyridyl]-3,8-diazabicyclo[3.2.1]octan-3-yl]pyridazin-3-yl]phenol], the DC50 [1] is reported as 10 to 100 nM, the Dmax [1, 3] is reported as 0 to 30% and the DC50 [2] is reported as < 10 nM. The “BRM IF Degradation Sinf (%)” value [2] was “E (E indicates −30%-−70%)”.

For `Nc1nnc(-c2ccccc2O)cc1N1CC2CCC(C1)N2c1ccnc(C#CCN2CCC23CCOC3)c1` (stereo not shown) [Compound 69, 2-[6-amino-5-[8-[2-[3-(7-oxa-1-azaspiro[3.4]octan-1-yl)prop-1-ynyl]-4-pyridyl]-3,8-diazabicyclo[3.2.1]octan-3-yl]pyridazin-3-yl]phenol], the DC50 [1] was < 10 nM, the “BRG1 IF Degradation Sinf (%)” value [1, 3] was “E (E indicates −30%-−70%)” and the DC50 [2] was < 10 nM. The “BRM IF Degradation Sinf (%)” value [2] was “F (F indicates −71%-−120%)”.
